Measurements reported in US6485931B2, “CHOLESTEROL DEHYDROGENASE, COPROSTAN-3-ONE DEHYDROGENASE AND 4-CHOLESTEN-3-ONE DEHYDROGENASE, COMPOSITIONS CONTAINING THE DEHYDROGENASES, AND METHOD FOR REDUCING AMOUNT OF CHOLESTEROL USING THE COMPOSITIONS” (Kyowa Hakko Kogyo Co., Ltd., priority 1996, dated 2002).

Legend:
[1] = system: 4-cholesten-3-one dehydrogenase B; assay: 4-cholesten-3-one dehydrogenase B titer: coprostan-3-one produced, TLC/FID; type: biochemical, Eubacterium sp. CP 1; details: for relative activity (enzyme activity without adding inhibitor is 100): 1 mM inhibitor, 30 minutes, pH 7.5, 37° C.; for relative activity in comparison with the case of no addition: 1 mM metal salt
Description: (§1) An enzyme solution was allowed to stand still at 37° C. for 15 minutes using various pH buffer solutions, and remaining activity was measured, and pH range in which activity was not less than 50% of the maximum active value was regarded as a stable pH range. (The following is the same.)
With 0.2 ml of 3 mM 4-cholesten-3-one micelle solution containing 0.33% Triton X-100 is mixed 0.3 ml of a 20 mM Tris-hydrochloric acid buffer solution (pH 7.5) containing 1.0% Triton X-100and 1 mM DTT, and 0.1 ml of a10 mM NADH solution, the resulted mixture is added 0.05 ml of an enzyme solution, reacted for 30 minutes at 37° C., and then added 0.1 ml of chloroform to extract sterol and to terminate the reaction.
(§2) Then, the quantity of coprostan-3-one produced in the reaction solution is determined using TLC/FID iatroscan. The quantity of coprostan-3-one produced in the reaction solution is determined likewise using an inactivated enzyme which has been previously heated as a control. The enzyme activity which produces 1 μmol of coprostan-3-one per one minute is regarded as 1 unit.

[2] = system: cholesterol in meat; assay: enzymatic conversion to coprostanol in aging period of meat (Embodiment 10); type: biochemical; details: minced beef, each enzyme 0.2 unit/g meat, PL-D 2 unit/g meat, 0.5 ml 20% nicotinamide, aged 7 days
Description: 10 g of beef 6 hours after slaughtering was made into minced meat, and to this was added the cholesterol dehydrogenase obtained in Embodiment 5 (0.2 unit/g meat), the 4-cholesten-3-one dehydrogenase obtained in Embodiment 6 (0.2 unit/g meat) and the coprostan-3-one dehydrogenase obtained in Embodiment 7 (0.2 unit/g meat) and mixed, and the mixture was aged at 5° C. for 7 days. Also, mixtures to which 0.5 ml of a 20% aqueous nicotinamide solution had been further added, meat to which phospholipase (2 unit/g meat) had been further added and meat to which both of them had been further added at the mixing were aged at […] for 7 days, respectively.
After aging, the meat was freeze-dried and lipid components were extracted with a 25 ml extraction solvent (chloroform:methanol=2:1). Regarding the resulting extracted sample, the amount of converted sterol products was determined using gas chromatography (manufactured by GL Science, TC-1701, column φ0.25 […]×30 m). In Table 5, PL-D represents phospholipase D and COP represents coprostanol, respectively.

[3] = system: coprostan-3-one dehydrogenase B; assay: coprostan-3-one dehydrogenase B titer: coprostanol produced, TLC/FID; type: biochemical, Eubacterium sp. CP 1; details: for relative activity (enzyme activity without adding inhibitor is 100): 1 mM inhibitor, 30 minutes, pH 7.5, 37° C.; for relative activity in comparison to the case of no addition: 1 mM metal salt
Description: as §1
With 0.2 ml of 3 mM coprostan-3-one micelle solution containing 0.33% Triton X-100 is mixed 0.3 ml of a 20 mM Tris-hydrochloric acid buffer solution (pH 7.5) containing 1.0% Triton X-100 and 1 mM DTT, and 0.1 ml of a 10 mM NADPH solution, to the resulted mixture is added 0.05 ml of an enzyme solution, reacted for 30 minutes at 37° C., and then added 0.1 ml of chloroform to extract sterol and to terminate the reaction.
(§3) Then, the quantity of coprostanol produced in the reaction solution is determined using TLC/FID iatroscan. The quantity of coprostanol in the reaction solution is determined likewise using an inactivated enzyme which has been previously heated as a control. The enzyme activity which produces 1 μmol of coprostanol per one minute is regarded as 1 unit.

[4] = system: cholesterol dehydrogenase A; assay: cholesterol dehydrogenase A titer: 4-cholesten-3-one produced from cholesterol micelle, TLC/FID; type: biochemical, Eubacterium sp. CP 2; details: for relative activity (enzyme activity without adding inhibitor defined as 100): 1 mM inhibitor, 30 minutes, pH 7.5, 37° C.; for relative activity as substrate (activity of cholesterol is 100): substrate specificity; for relative activity in comparison with the case of no addition: 1 mM metal salt
Description: as §1
With 0.2 ml of 3 mM cholesterol micelle solution containing 0.33% Triton X-100 is mixed 0.3 ml of a 20 mM piperazine-N,N′-bis-(2-ethane […]) (hereinafter, referred to as “PIPES”) buffer solution (pH 7.5) containing 0.5% Triton X-100 and 1 mM dithiothreitol (hereinafter, referred to as “DTT”), and 0.1 ml of a 10 mM […] solution, the resulted mixture is added 0.05 ml of an enzyme solution, reacted for 30 minutes at 37° C., and then added 0.1 ml of chloroform to extract sterol and to terminate the reaction.
Then, the quantity of 4-cholesten-3-one produced in the reaction solution is determined using TLC/FID iatroscan. The quantity of 4-cholesten-3-one produced in the reaction solution is determined likewise using an inactivated enzyme which has been previously heated as a control. The enzyme activity which produces 1 μmol of 4-cholesten-3-one per one minute is regarded as 1 unit.

[5] = system: cholesterol dehydrogenase B; assay: cholesterol dehydrogenase B titer: 4-cholesten-3-one produced, TLC/FID; type: biochemical, Eubacterium sp. CP 1; details: for relative activity (enzyme activity without adding inhibitor is 100): 1 mM inhibitor, 30 minutes, pH 7.5, 37° C.; for relative activity as substrate (activity of cholesterol defined as 100): substrate specificity; for relative activity in comparison to the case of no addition: 1 mM metal salt
Description: as §1
With 0.2 ml of 3 mM cholesterol micelle solution containing 0.33% Triton X-100 is mixed 0.3 ml of a 50 mM phosphoric acid buffer solution (pH 7.5) containing 1.0% Triton X-100 and 1 mM DTT, and 0.1 ml of a 10 mM NADP solution, to the resulted mixture is added 0.05 ml of an enzyme solution, reacted for 30 minutes at 37° C., and then added 0.1 ml of chloroform to extract sterol and to terminate the reaction.
Then, the quantity of 4-cholesten-3-one produced in the reaction solution is determined using TLC/FID iatroscan. […] The enzyme activity which produces 1 μmol of 4-cholesten-3-one per one minute is regarded as 1 unit.

[6] = system: 4-cholesten-3-one dehydrogenase A; assay: 4-cholesten-3-one dehydrogenase A titer: coprostan-3-one produced, TLC/FID; type: biochemical, Eubacterium sp. CP 2; details: for relative activity (enzyme activity without adding inhibitor defined as 100): 1 mM inhibitor, 30 minutes, pH 7.5, 37° C.; for relative activity in comparison to the case of no addition: 1 mM metal salt; for relative activity as substrate (activity of 4-cholesten-3-one defined as 100): substrate specificity
Description: as §1
With 0.2 ml of 3 mM 4-cholesten-3-one micelle solution containing 0.33% Triton X-100 is mixed 0.3 ml of a 20 mM PIPES buffer solution (pH 7.5) containing 0.5% Triton X-100 and 1 mM DTT, and 0.1 ml of a 10 mM NADH solution, the resulted mixture is added 0.05 ml of an enzyme solution, and reacted for 30 minutes at 37° C., and then added 0.1 ml of chloroform to extract sterol and to terminate the reaction.
as §2

[7] = system: coprostan-3-one dehydrogenase A; assay: coprostan-3-one dehydrogenase A titer: coprostanol produced, TLC/FID; type: biochemical, Eubacterium sp. CP 2; details: for relative activity (enzyme activity without adding inhibitor defined as 100): 1 mM inhibitor, 30 minutes, pH 7.5, 37° C.; for relative activity in comparison with the case of no addition: 1 mM metal salt
Description: as §1
[…] The enzyme solution was mixed with equal amounts of activating fractions and left for 15 minutes at 5° C., then used.
as §3

[8] = in vivo; cited from earlier work

CC(C)CCC[C@@H](C)[C@H]1CC[C@H]2[C@@H]3CC=C4CC(=O)CC[C@]4(C)[C@H]3CC[C@]12C [5-cholestenon-3-one]
relative activity as substrate (activity of 4-cholesten-3-one defined as 100) ([1]; substrate specificity): 0

NC(=O)c1cccnc1 [Nicotinamide, nicotinamide]
COP conversion (%) [2]: 0%

O=S(=O)(O)c1cc[c]([Hg][Cl])cc1 [PCMB, p-chloro mercury phenylsulfonate]
relative activity (enzyme activity without adding inhibitor is 100) [3]: 0
relative activity (enzyme activity without adding inhibitor defined as 100) [4]: 0
relative activity (enzyme activity without adding inhibitor is 100) [5]: 0
relative activity (enzyme activity without adding inhibitor is 100) [1]: 0
relative activity (enzyme activity without adding inhibitor defined as 100) [6]: 47
relative activity (enzyme activity without adding inhibitor defined as 100) [7]: 41

CC(C)[C@H](C)CC[C@@H](C)[C@H]1CC[C@H]2[C@@H]3CC=C4C[C@@H](O)CC[C@]4(C)[C@H]3CC[C@]12C [campesterol]
relative activity as substrate (activity of cholesterol is 100) [4]: 74
relative activity as substrate (activity of cholesterol defined as 100) [5]: 50

[Cl][Cu][Cl] [copper chloride]
relative activity in comparison to the case of no addition [3]: 0
relative activity in comparison with the case of no addition [4]: 3.2
relative activity in comparison to the case of no addition [5]: 0
relative activity in comparison with the case of no addition [1]: 0
relative activity in comparison to the case of no addition [6]: 0
relative activity in comparison with the case of no addition [7]: 2.7

CC(C)CCC[C@@H](C)[C@H]1CC[C@H]2[C@@H]3CC[C@@H]4C[C@@H](O)CC[C@]4(C)[C@H]3CC[C@]12C [coprostanol]
absorbability through the intestinal tract [8]: very low

NC(=O)CI [iodine acetamide]
relative activity (enzyme activity without adding inhibitor is 100) [3]: 95
relative activity (enzyme activity without adding inhibitor defined as 100) [4]: 82
relative activity (enzyme activity without adding inhibitor is 100) [1]: 99
relative activity (enzyme activity without adding inhibitor defined as 100) [6]: 94
relative activity (enzyme activity without adding inhibitor defined as 100) [7]: 82

O=C(O)CI [iodine acetic acid]
relative activity (enzyme activity without adding inhibitor is 100) [5]: 98

O=P([O-])([O-])[O-].[Na+].[Na+].[Na+] [phosphate ion, trisodium phosphate]
effect on conversion reaction by cholesterol dehydrogenase B [5]: remarkably activated

CC(=O)[C@H]1CC[C@H]2[C@@H]3CCC4=CC(=O)CC[C@]4(C)[C@H]3CC[C@]12C [progesterone]
relative activity as substrate (activity of 4-cholesten-3-one defined as 100) [6]: 41

CC[C@H](/C=C/[C@@H](C)[C@H]1CC[C@H]2[C@@H]3CC=C4C[C@@H](O)CC[C@]4(C)[C@H]3CC[C@]12C)C(C)C [stigmasterol]
relative activity as substrate (activity of cholesterol is 100) [4]: 30
relative activity as substrate (activity of cholesterol defined as 100) [5]: 39

C[C@]12CC[C@H]3[C@@H](CCC4=CC(=O)CC[C@@]43C)[C@@H]1CC[C@@H]2O [testosterone]
relative activity as substrate (activity of 4-cholesten-3-one defined as 100) [6]: 0

CC[C@H](CC[C@@H](C)[C@H]1CC[C@H]2[C@@H]3CC=C4C[C@@H](O)CC[C@]4(C)[C@H]3CC[C@]12C)C(C)C [β sitosterol]
relative activity as substrate (activity of cholesterol is 100) [4]: 38
relative activity as substrate (activity of cholesterol defined as 100) [5]: 67

iron chloride
relative activity in comparison to the case of no addition [3]: 105
relative activity in comparison with the case of no addition [4]: 95
relative activity in comparison to the case of no addition [5]: 0
relative activity in comparison with the case of no addition [1]: 107
relative activity in comparison to the case of no addition [6]: 110
relative activity in comparison with the case of no addition [7]: 12

prognerone
relative activity as substrate (activity of 4-cholesten-3-one defined as 100) [6]: 0
